This data set in a line: DSC MRI with gadoteridol (day 1) and ferumoxytol (day 2) in subjects with Glioblastoma multiforme. It counts as in vivo. An excerpt:
In this example, 17 subjects with Glioblastoma multiforme (GBM) were prospectively studied on institutional review board approved protocols. Informed written consent was obtained from each subject. Subjects underwent MRI sessions consisting of two consecutive days of MRI scans. On the first day, pre- and post-contrast T1-weighted images and DSC-MRI were acquired using gadoteridol gadolinium (III) chelate (ProHance, Bracco Diagnostic Inc., Princeton, N.J.). On the following day, the same MRI sequences were acquired using ferumoxytol (provided by AMAG Pharmaceuticals, Inc., Cambridge, Mass.). […]
All Gd and Fe DSC data were first motion corrected within each dynamic series and then between the series using FMRIB's Linear Image Registration Tool (FLIRT) within FM RIB Software Library (FSL). […] The Gd CR extravasating rate constant was calculated either with the Equation 1 fitting approach to obtain K2, or the KL constant defined as the slope of the linear portion of the graphed points using Equation 2. In this example, linear regression was performed starting at 40 seconds post CR injection to ensure minimal influence of CR transient period (period (i) shown in FIGS. 2E and 2F described below) on KL quantification. […]

The structures appear in SMILES notation.

The values below come from patent publication US9619875B2, “Contrast reagent leakage correction in dynamic susceptibility contrast magnetic resonance imaging” (OREGON HEALTH & SCIENCE UNIVERSITY, priority 2014, dated 2017).

For `CC(O)CN1CCN(CC(=O)[O-])CCN(CC(=O)[O-])CCN(CC(=O)[O-])CC1.[Gd+3]` (centres unmarked) [gadoteridol, gadoteridol gadolinium (III) chelate], for the setting “17 GBM subjects, gadoteridol 0.1 mmol/kg i.v., ferumoxytol 1 mg/kg, 2 mg/kg or 75 mg i.v.”, the “complications during the MR examinations” value is reported as “No subject had any complications”. In addition, the “pixels with appreciable linearity departure (period iii, intravasation)” value (Equation 2 linearization, data up to 70 s post CR injection) is recorded as less than 0.1%.
